Measured values reported in patent US20250281456A1, “METHODS OF TREATING CANCER BY INHIBITING BACTERIAL DNAK TO RESTORE ACTIVITIES OF ANTICANCER DRUGS” (University of Maryland, Baltimore, priority 2022, published 2025).
Like-named read-outs stand apart in the source and are kept apart here.

Tests used:
AGS cells = experiment: cells; conditions: Homo sapiens, 48 h
Procedure: (§1) FIG. 11. […] Parallel wells of untreated cells were used as negative control. Cell viability was assessed by using the trypan blue assay. Percentage of alive cells for each treatment are calculated as percentage using the untreated cell as reference. […] Statistical differences were tested using Student's t test. All statistical tests were two sided. p=***<0.001, **<0.01, *<0.05, ns=not significant.
as §1, with “14.” for “11.”, “p=*<0.05,” for “p=***<0.001,”, “***<0.001.” for “*<0.05, ns=not significant.”
(§2) To determine the effects of eM and eF-DnaKs on HCT116 and AGS cells lines treated with different anti-cancer drugs, cells were plated 200,000 cells/well in 6-wells plates. After 24 h, both eM-DnaK and eF-DnaK were added to the cultures at a concentration of 10 ug/ml. […] Parallel cultures of untreated cells were the negative controls. […] After 48 h of treatment with the anti-cancer drugs, cell monolayers were washed in PBS, trypsinized and cell viability was measured using the trypan blue assay. The trypan blue exclusion assay allows for a direct identification and enumeration of live (unstained) and dead (blue) cells in the given population.
(§3) More in detail, we pre-treated both exogenous DnaKs with ARV-1502 (25 μg/ml) before adding them to the culture of HCT116 or AGS cells. After 3 h of incubation the complex was added to the culture. After 24 h the cells were treated with the anti-cancer drugs and then subjected to count with trypan blue as previously described. Parallel cultures of cells treated with the drugs and DnaKs not complexed with ARV-1502 were used as control.

HCT116 cells [1] = experiment: cells; conditions: Homo sapiens, HCT-116, 48 h, 48 h
Procedure: as §1
as §1, with “14.” for “11.”, “p=*<0.05,” for “p=***<0.001,”, “***<0.001.” for “*<0.05, ns=not significant.”
as §2, §3

[2] = system: HCT116 cells infected with Mycoplasma; experiment: Cell viability of Mycoplasma-infected HCT116 cells (LIVE/DEAD kit); assay type: cell-based, human; conditions: 5FU or Nutlin-3, 48 hours
Procedure: FIG. 2. DnaK negatively affects p53 activities and Mycoplasma infection reduces the effect of anti-cancer drugs. (A) DnaK reduces p53-associated activities in HCT116 cells. Levels of p53, p21, Bax and PUMA proteins were analyzed in control, vector and DnaK transfected cells at different time-points (2, 8 and 16 hours). Expression of DnaK was verified using the anti-V5 antibody. NT: not transfected; VT: vector transfected; DnaK: DnaK transfected; M: media; D: DMSO; N: Nutlin. β-act: β-actin. Band intensity was measured by densitometric analysis. Numbers above bands indicate fold increase above level of nutlin-treated DnaK-transfected cells, normalized for the levels of β-actin. (B) DnaK increases cell cycle progression. HCT116 cells were transfected with a DnaK-expressing vector and subsequently analyzed for cell cycle progression. Data were collected 16-24 hours after transfection. Results represent mean and standard deviations of 5 different experiments. […] Results are expressed as percent cell viability over control (uninfected cells in media alone were considered as 100%). Mean difference is shown. *=p<0.001—calculated using Poisson regression.
HCT116 cells (colon carcinoma cell line) were obtained from ATCC. […] In all experiments cell viability was calculated as a percentage relative to the control cultures. […]

[3] = system: primary murine cancer cells constitutively expressing DnaK; experiment: cells; conditions: Mus musculus, read-out: cell viability
HCT116 cells [4] = experiment: HCT116 cell viability (trypan blue) with cisplatin, exogenous DnaKs and DnaK inhibitor (Example 4); assay type: cell-based, human
Procedure: After 24 h, both eM-DnaK and eF-DnaK were added to the cultures at a concentration of 10 ug/ml. […] Parallel cultures of untreated cells were the negative control. […] After 48 h of treatment with the anti-cancer drugs, cell monolayers were washed in PBS, trypsinized and cell viability was measured using the trypan blue assay. The trypan blue exclusion assay allows for a direct identification and enumeration of live (unstained) and dead (blue) cells in the given population.
More in detail, we pre-treated both DnaKs with Telaprevir (25 μg/ml) before adding them to the culture of HCT116 cells. After 3 h of incubation the complex was added to the culture. After 24 h the cells were treated with the anti-cancer drugs and then subjected to count with trypan blue as previously described. Parallel cultures of cells treated with the drugs and DnaKs not complexed with Telaprevir were used as control.

M. tuberculosis DnaK = M. tuberculosis DnaK (Mycobacterium tuberculosis, UniProt P9WMJ9); conditions: previously demonstrated; cited from earlier work
[5] = target: Mycoplasma fermentans DnaK-V5, expressed inside cells (codon-optimized DnaK vector transfected into (Mycoplasma fermentans)); experiment: cell-based or functional assay
[6] = target: Recombinant purified exogenous Mycoplasma fermentans DnaK-V5 protein (eM-DnaK) (Mycoplasma fermentans); experiment: SPR (BIAcore T100), eM-DnaK immobilized on CM5 chip (2274.9 RU), ARV-1502 as analyte

Work on `O=c1[nH]cc(F)c(=O)[nH]1` [5FU, 5-Fluorouracil] yielded a viability at 75 µM (AGS cells; read-out: cell viability, AGS, drug alone (eF-DnaK experiment), Cisplatin 2 μM or 5FU 75 μM, 48 h, % of untreated cells) of 31%, a viability at 75 µM (AGS cells; read-out: cell viability, AGS, drug alone (eM-DnaK experiment), Cisplatin 25 μM or 5FU 75 μM, 48 h, % of untreated cells) of 15% and a viability at 75 µM (AGS cells; read-out: cell viability, AGS, drug in the presence of eF-DnaK (10 ug/ml), Cisplatin 2 μM or 5FU 75 μM, 48 h) of 42%. The viability at 75 µM (AGS cells; read-out: cell viability, AGS, drug in the presence of eM-DnaK (10 ug/ml), Cisplatin 25 μM or 5FU 75 μM, 48 h) was 33%, the viability at 75 µM (HCT116 cells [1]; read-out: cell viability, HCT116, drug alone (eF-DnaK experiment), Cisplatin 2 μM or 5FU 75 μM, % of untreated cells) was 14% and the viability at 75 µM (HCT116 cells [1]; read-out: cell viability, HCT116, drug alone (eM-DnaK experiment), Cisplatin 25 μM or 5FU 75 μM, % of untreated cells) was 14%. The viability at 75 µM (HCT116 cells [1]; read-out: cell viability, HCT116, drug in the presence of eF-DnaK (10 ug/ml), Cisplatin 2 μM or 5FU 75 μM) was 17%, the viability at 75 µM (HCT116 cells [1]; read-out: cell viability, HCT116, drug in the presence of eM-DnaK (10 ug/ml), Cisplatin 25 μM or 5FU 75 μM) was 16% and the “effect of Mycoplasma infection on drug activity (cell viability)” value [2] was “resistance to these anti-cancer drugs”. It also gave a viability at 75 µM [3] of 55%.
With `COc1ccc(C2=N[C@@H](c3ccc(Cl)cc3)[C@@H](c3ccc(Cl)cc3)N2C(=O)N2CCNC(=O)C2)c(OC(C)C)c1` [Nutlin, Nutlin-3] the “effect of Mycoplasma infection on drug activity (cell viability)” value [2] was “resistance to these anti-cancer drugs”.
For `CCC[C@H](NC(=O)[C@@H]1[C@H]2CCC[C@H]2CN1C(=O)[C@@H](NC(=O)[C@@H](NC(=O)c1cnccn1)C1CCCCC1)C(C)(C)C)C(=O)C(=O)NC1CC1` [Telaprevir, (3S,3aS,6aR)-2-[(2S)-2-[[(2S)-2-cyclohexyl-2-(pyrazine-2-carbonylamino)acetyl]amino]-3,3-dimethylbutanoyl]-N-[(3S)-1-(cyclopropylamino)-1,2-dioxohexan-3-yl]-3,3a,4,5,6,6a-hexahydro-1H-cyclopenta[c]pyrrole-3-carboxamide], the “restoration of cisplatin anti-cancer activity” value (HCT116 cells [4]; HCT116, cisplatin in the presence of eM-DnaK or eF-DnaK pre-treated with Telaprevir (25 μg/ml)) is listed as “restoration of the original anti-cancer activity” and the “DnaK binding and ATPase activity” value (M. tuberculosis DnaK) is listed as “bind to M. tuberculosis DnaK substrate-binding domain and to reduce its ATPase activity”.
For `COc1cc(C(=O)NS(=O)(=O)c2ccccc2C)ccc1Cc1cn(C)c2ccc(NC(=O)OC3CCCC3)cc12` [Zafirlukast, zafirlukast], the “restoration of cisplatin anticancer activity” value (HCT116 cells [4]; HCT116, cisplatin in the presence of DnaK from M. fermentans and F. nucleatum (FIG. 9)) was “restores anticancer activity of cisplatin”.
With `N.N.[Cl][Pt][Cl]` [cisplatin] the “blunting of the anti-cancer effect of the drug” value (HCT116 cells [4]; HCT116, cisplatin in the presence of eM-DnaK or eF-DnaK) was 40-50%.
Compound ARV-1502 (peptide) has a cell viability of DnaK-expressing primary murine cancer cells, 5FU plus ARV-1502 [5] of 40% and a Kd [6] of 1.9 µM.
